Measured values published in US20220184394A1, “STATE-DEPENDENT PUDENDAL NERVE STIMULATION FOR BLADDER CONTROL” (Duke University, priority 2017, published 2022).
Entries after “also recorded” stand apart in the source; their conditions may differ. Read-outs that look alike come from different tables or passages of the source.

Tests used:
[1] = test system: bladder; settings: PGE2 given to healthy women; cited from earlier work
[2] = test system: bladder; assay: Single-fill cystometry with intravesical PGE2 (model of OAB) in anesthetized rats; format: in vivo, Female Wistar rats; settings: intravesical 100 μM PGE2 vs saline control
Method: Female Wistar rats (n=18) weighing between 237 and 296 g were anesthetized with urethane (1.2 g/kg SC, supplemented as necessary). Body temperature was monitored using an esophageal temperature probe and maintained at 36-38° C. with a water blanket. Heart rate and arterial blood oxygen saturation levels were monitored using a pulse oximeter (Nonin Medical Inc., 2500 A VET).
For cystometrogram (CMG) measurements, the bladder was exposed via a midline abdominal incision. A PE-90 catheter, the tip of which was heated to create a collar, was inserted into the bladder lumen through a small incision in the apex of the bladder dome and secured with a 6-0 silk suture. The abdominal wall was closed in layers with 3-0 silk suture. […]
The bladder was filled continuously with physiological saline at room temperature (2-8 ml/hr) using an infusion pump with an open urethra for at least 45 minutes during post-surgical recovery. The bladder was subsequently emptied and cystometrograms (CMGs) recorded. […] Voided and residual volumes were recorded and used to calculate bladder capacity and voiding efficiency. […] For these trials, voiding efficiency was calculated as the first voided volume divided by the bladder capacity, and “reflex” voiding efficiency was calculated as the sum of the two voided volumes divided by the bladder capacity. […]

[3] = test system: bladder; settings: intravesical PGE2, rats; cited from earlier work

In the case of `CCCCC[C@H](O)/C=C/[C@H]1[C@H](O)CC(=O)[C@@H]1C/C=C\CCCC(=O)O` [PGE2, Prostaglandin E2], the Bladder capacity [1] is given as “reduced bladder capacities”, the Urgency sensation [1] is given as “a strong urgency sensation” and the Voiding efficiency ([2]; n=9, p<0.001) is given as “increased voiding efficiency; also recorded: Voiding efficiency increased”. For the same compound, the Bladder capacity ([2]; urethane-anesthetized, n=9, p=0.02) was “consistently reduced bladder capacity; also recorded: decreased bladder capacity; also recorded: Bladder capacity decreased” and the Bladder capacity [3] was “reduces bladder capacity”.
